Values quoted from earlier work as cited in patent US5883123A, “Butyrate prodrugs derived from lactic acid” (Vertex Pharmaceuticals, Inc., priority 1995, dated 1999).

How the values were obtained:
tumor = conditions: mice
[1] = test system: Cultured Erythroleukemic Cells; conditions: in vitro

In the case of `CCCC(=O)O` [arginine butyrate], the “anti-tumor and anti-leukemia effects” value (tumor) is listed as “anti-tumor and anti-leukemia effects in mice”.

In the case of `CCCC(=O)O` [butyric acid], the “effects in leukemia patients, by inducing cell differentiation” value (leukemia patients) is given as “promising effects in leukemia patients” and the cell differentiation [1] is given as “induces cell differentiation in vitro”.
